The values that follow come from patent US20110130397A1, “PYRROLINONE COMPOUNDS AS INHIBITORS OF BACTERIAL PEPTIDYL TRNA HYDROLASE AND USES THEREOF” (priority 2006, published 2011).

In general, CC50 refers to the concentration that lowers cell viability or growth by half. As usually defined, the melting point is the temperature of the solid-liquid transition.

The nature of data set [1]: Cytotoxicity (CellTiter 96 Aqueous Non-Radioactive Cell Proliferation Assay). It is filed as cell-based. Particulars: human, Huh7 cells. How it is done:
Novel antibacterial peptidyl tRNA hydrolase inhibitors were identified using the MIC assay (inhibition ranged from 32-100%). The inhibitors were also bacteria specific, as evidenced by the low cytotoxicity observed for the human Huh7 cells (FIG. 4). Cytotoxicity was determined according to manufacturer's directions (CellTiter 96 Aqueous Non-Radioactive Cell Proliferation Assay, Promega).
Further data for representative compounds is set forth in Table 1 (MIC and cytotoxicity). Compounds were tested against S. aureus (ATCC 29213) and E. coli (BAS849—permeable) in the MIC assays. Certain compounds were also tested against other bacteria, including S. epidermis (ATCC 12228), E. faecium (ATCC 49624), and E. faecalis (ATCC 29212). Cytotoxicity was determined using Hu7 cells and Hep G2 cells. The MIC and cytotoxicity assays were performed as described above.

Take `CCOc1cc(C2C(C(=O)c3cc4ccccc4o3)=C(O)C(=O)N2c2nnc(SCc3cccc4ccccc34)s2)ccc1O` (stereo not drawn) [Compound 2]: in data set [1], the CC50 was greater than 79 µM.
The same measure, in the same setting: as for `CCOc1cc(C2C(C(=O)c3cc4ccccc4o3)=C(O)C(=O)N2c2nnc(SCc3ccccc3F)s2)ccc1O` (stereo not drawn) [Compound 3], the figure is greater than 83 µM; as for `CCOc1cc(C2C(C(=O)c3cc4ccccc4o3)=C(O)C(=O)N2c2nc3c(C)cc(C)cc3s2)ccc1O` (stereo not drawn) [Compound 4], 53.4 µM; as for `CCOc1cc(C2C(C(=O)c3cc4ccccc4o3)=C(O)C(=O)N2c2nnc(SCc3ccccc3)s2)ccc1O` (stereo not drawn) [Compound 7], greater than 85 µM.
Consider `Cc1ccc2nc(N3C(=O)C(O)=C(C(=O)c4cc5ccccc5o4)C3c3cccc(O)c3)sc2c1` (stereo not drawn) [Compound 8], for which the CC50 in data set [1] stood at 80.1 µM.
Same read-out and setting: as for `COc1cc(C2C(C(=O)c3cc4ccccc4o3)=C(O)C(=O)N2c2nnc(C)s2)ccc1OCc1ccccc1` (stereo not drawn) [Compound 9], the figure is greater than 90 µM.
As to `CC(=O)c1sc(N2C(=O)C(O)=C(C(=O)c3cc4ccccc4o3)C2c2ccc(OCc3ccccc3)cc2)nc1C` (stereo not drawn) [Compound 10], the melting point lay in the range of 195 to 197 °C. Moreover, the CC50 in data set [1] was greater than 89 µM.
Take `COc1cc(C2C(C(=O)c3cc4ccccc4o3)=C(O)C(=O)N2c2nc(C)c(C(C)=O)s2)ccc1OCc1ccccc1` (stereo not drawn) [Compound 11]: the CC50 in data set [1] is greater than 84 µM.
As to `O=C(C1=C(O)C(=O)N(c2nnc(SCc3ccc(Cl)cc3)s2)C1c1cccc(O)c1)c1cc2ccccc2o1` (stereo not drawn) [Compound 12], in data set [1], the CC50 is greater than 87 µM.
For `CCOc1cc(C2C(C(=O)c3cc4ccccc4o3)=C(O)C(=O)N2c2nc(C)c(C(C)=O)s2)ccc1O` (stereo not drawn) [Compound 13], in data set [1], the CC50 came out at 59.8 µM.
Take `CCCCCOc1ccc(C2C(C(=O)c3cc4ccccc4o3)=C(O)C(=O)N2c2nc(C)c(C(C)=O)s2)cc1OC` (stereo not drawn) [Compound 14]: the CC50 in data set [1] was 74.2 µM.
For the compound `O=C(C1=C(O)C(=O)N(c2nnc(SCc3ccc(F)cc3)s2)C1c1cccc(O)c1)c1cc2ccccc2o1` (stereo not drawn) [Compound 15], the CC50 in data set [1] is greater than 89 µM.
On the same count and under the same terms, the same measure for `CC(=O)C1=C(O)C(=O)N(c2nccs2)C1c1ccccc1` (stereo not drawn) [Compound 22]: 29.7 µM.
Same read-out and setting: as for `CCOC(=O)c1sc(N2C(=O)C(O)=C(C(=O)c3ccc(C)cc3)C2c2cccs2)nc1C` (stereo not drawn) [Compound 28], the figure is 89.1 µM.
Still for that read-out and setting: as for `COC(=O)c1sc(N2C(=O)C(O)=C(C(=O)c3ccc(F)cc3)C2c2ccc(F)cc2)nc1C` (stereo not drawn) [Compound 31], the figure is 46.5 µM.
With `Cc1nnc(N2C(=O)C(O)=C(C(=O)c3ccc(OC(C)C)cc3)C2c2ccco2)s1` (stereo not drawn) [Compound 33], the CC50 in data set [1] was greater than 110 µM.
Take `CCOC(=O)c1sc(N2C(=O)C(O)=C(C(=O)c3ccc(F)cc3)C2c2cccs2)nc1C` (stereo not drawn) [Compound 40]: the CC50 in data set [1] turned out to be 62.9 µM.
Regarding `COc1ccc(C(=O)C2=C(O)C(=O)N(c3nccs3)C2c2ccc(Cl)cc2)cc1C` (stereo not drawn) [Compound 44], the CC50 in data set [1] was found to be 51.5 µM.
Same read-out and setting: as for `CCOC(=O)c1sc(N2C(=O)C(O)=C(C(=O)c3ccco3)C2c2ccco2)nc1C` (stereo not drawn) [Compound 45], the figure is 96.2 µM; as for `Cc1nc(C)c(C(=O)C2=C(O)C(=O)N(c3nc4ccc(Cl)cc4s3)C2c2cccs2)s1` (stereo not drawn) [Compound 49], greater than 111 µM.
As to `Cc1cnc(N2C(=O)C(O)=C(C(=O)c3cc4ccccc4o3)C2c2ccc(OCc3ccccc3)cc2)s1` (stereo not drawn) [Compound 50], the melting point was in the range of 241 to 243 °C. In addition, in data set [1], the CC50 came to 82 µM.
Taken in the same sequence, the figures for `O=C(C1=C(O)C(=O)N(c2nc3ccccc3s2)C1c1ccc(OCc2ccccc2)cc1)c1cc2ccccc2o1` (stereo not drawn) [Compound 51] were 213 to 214 °C and 82.3 µM.
`O=C(C1=C(O)C(=O)N(c2nncs2)C1c1ccc(OCc2ccccc2)cc1)c1cc2ccccc2o1` (stereo not drawn) [Compound 52] came in with a melting point of 150 to 154 °C. Also, the CC50 in data set [1] was greater than 90 µM.
On the same counts, the results for `O=C(C1=C(O)C(=O)N(c2nccs2)C1c1ccc(OCc2ccccc2)cc1)c1cc2ccccc2o1` (stereo not drawn) [Compound 53] are 193 to 195 °C and greater than 98 µM.
The compound `CC(=O)c1sc(N2C(=O)C(O)=C(C(=O)c3cc4ccccc4o3)C2c2ccccc2)nc1C` (stereo not drawn) [Compound 54] displayed a melting point of 205 to 208 °C. In addition, in data set [1], the CC50 was determined as 78.5 µM.
Taken in the same sequence, the figures for `CC(=O)c1sc(N2C(=O)C(O)=C(C(=O)c3cc4ccccc4o3)C2c2ccc(-c3ccccc3)cc2)nc1C` (stereo not drawn) [Compound 55] were 226 to 228 °C and 42.9 µM.
For `CC(=O)c1sc(N2C(=O)C(O)=C(C(=O)c3cc4ccccc4o3)C2c2ccc(Oc3ccccc3)cc2)nc1C` (stereo not drawn) [Compound 56], the melting point was in the range of 251 to 253 °C. Further, the CC50 in data set [1] was greater than 984 µM.
Regarding `CCCCOc1ccc(C2C(C(=O)c3cc4ccccc4o3)=C(O)C(=O)N2c2nc(C)c(C(C)=O)s2)cc1` (stereo not drawn) [Compound 57], the melting point lay in the range of 186 to 188 °C. For the same compound, the CC50 in data set [1] is greater than 91 µM.
Regarding `Cc1coc(N2C(=O)C(O)=C(C(=O)c3cc4ccccc4o3)C2c2ccc(OCc3ccccc3)cc2)n1` (stereo not drawn) [Compound 58], the melting point was 169 to 171 °C. The CC50 in data set [1] was greater than 94 µM.
Take `Cc1ccc(C2C(C(=O)c3ccc(Cl)cc3)=C(O)C(=O)N2c2nccs2)cc1` (stereo not drawn) [Compound 59]: in data set [1], the CC50 came to 60.5 µM.
The same measure, in the same setting: the same measure for `CCc1ccc2nc(N3C(=O)C(O)=C(C(=O)c4ccccc4)C3c3cccs3)sc2c1` (stereo not drawn) [Compound 118]: 10.8 µM; for `CCc1ccc2nc(N3C(=O)C(O)=C(C(=O)c4ccccc4)C3c3ccco3)sc2c1` (stereo not drawn) [Compound 119]: 10.8 µM; for `CCc1ccc2nc(N3C(=O)C(O)=C(C(=O)c4ccco4)C3c3cccs3)sc2c1` (stereo not drawn) [Compound 122]: 58.2 µM.
The same measure, in the same setting: as for `Cc1cc(C)c2nc(N3C(=O)C(O)=C(C(=O)c4ccc5c(c4)OCCO5)C3c3cccnc3)sc2c1` (stereo not drawn) [Compound 126], the figure is 27.4 µM.
Consider `CC(=O)N1CCCC1C(=O)C1=C(O)C(=O)N(c2nc3ccc(Cl)cc3s2)C1c1ccc(F)cc1` (stereo not drawn) [Compound 646, 4-(1-Acetylpyrrolidine-2-carbonyl)-1-(6-chlorobenzo[d]thiazol-2-yl)-5-(4-fluorophenyl)-3-hydroxy-1H-pyrrol-2(5H)-one], for which the melting point was 268 to 272 °C.
Still for that read-out and setting: the same measure for `CC(=O)NC(CC(C)C)C(=O)C1=C(O)C(=O)N(c2nc3ccc(Cl)cc3s2)C1c1ccc(F)cc1` (stereo not drawn) [Compound 647]: 148 to 152 °C; for `CC(=O)N1CCCC1C(=O)C1=C(O)C(=O)N(c2nc3ccc(F)cc3s2)C1c1ccc(Cl)cc1` (stereo not drawn) [Compound 648]: 293 to 297 °C.
Same read-out and setting: as for `CC(=O)NC(CC(C)C)C(=O)C1=C(O)C(=O)N(c2nc3ccc(F)cc3s2)C1c1ccc(Cl)cc1` (stereo not drawn) [Compound 649], the figure is 266 to 269 °C.
